In BindingDB's records for doi:10.1016/j.bmcl.2010.01.018 (Schering-Plough Research Institute, 2010) one finds IC50 data, which are given here for one compound.

As usually defined, the IC50 is the midpoint of a concentration-inhibition curve. Lower therefore signals inhibition by little substance.

The test in a line: Inhibition of Aurora 2 kinase.

As for `COc1c(O)cc2c3c(cc4ccc(O)cc4c13)NC2=O` [aristololactam A IIIa], half-maximal inhibition (IC50) required 2.14 µM.
